Some test systems named below: DLD-1; DMS-114; HOP-18; LXFL 529; M19-MEL; RXF 631; XF498; DMS-273; SNB-78.
Test in all cases: NCI-60 cell line screen, 48 h

Molecules are shown by their SMILES.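 How tested: cells in 96-well plates exposed to compound for 48 hours at five concentrations. Abbreviation: GI50, concentration required for 50% inhibition of growth.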 The source made the active and inactive calls. Rule as the data show it: active = GI50 up to about 1.1 µM and inactive = higher. Bounds are passed on as bounds.

With `CCOC(=O)C(=O)Nc1ccc([N+](=O)[O-])cc1C#N`, the GI50 with DLD-1, with DMS-114, with HOP-18, in the assay with LXFL 529, in the assay with M19-MEL and in the assay on RXF 631 was > 100 µM (inactive) each time. The GI50 in the assay on XF498 is > 100 µM (inactive).
With `CN(C)NC(=O)/C(=C/c1ccc(Cl)cc1)NC(=O)c1ccccc1`, the GI50 was 44.9 µM (inactive) in the assay on DLD-1; 29.4 µM (inactive) in the assay on DMS-273; > 100 µM (inactive) with HOP-18; > 100 µM (inactive) in the assay on LXFL 529; > 100 µM (inactive) in the assay on M19-MEL; 55.3 µM (inactive) in the assay with RXF 631. For the same molecule, the GI50 with XF498 is > 100 µM (inactive).
As to `COC(=O)C(C(=O)C(=O)Nc1ccc(C)cc1C)c1nc2ccc([N+](=O)[O-])cc2nc1O` (centres undefined), the GI50 in the assay with DLD-1 was > 100 µM (inactive); in the assay on DMS-114 it was 33.4 µM (inactive); with DMS-273 it was 97.7 µM (inactive); in the assay on HOP-18, > 100 µM (inactive); in the assay with LXFL 529, 56.8 µM (inactive); in the assay with M19-MEL, > 100 µM (inactive). The GI50 in the assay with RXF 631, in the assay with SNB-78 and in the assay with XF498 was > 100 µM (inactive) throughout.
In the case of `Cc1ccc(/C=C(\NC(=O)c2ccccc2)c2nc3ccccc3[nH]2)cc1`, the GI50 was 56.8 µM (inactive) in the assay on DLD-1; 27.6 µM (inactive) in the assay on DMS-114; > 100 µM (inactive) in the assay on HOP-18; 32.2 µM (inactive) in the assay with LXFL 529; 46.5 µM (inactive) in the assay with M19-MEL.
On to `CCO[C@]12C[C@H](OC)[C@@]3(O)CC(C1[C@H]3OCc1ccccc1)C13C4C2[C@H](OC)C1[C@](COC)(CN4CC)[C@H](O)C[C@@H]3OC` (some centres undefined), for which the GI50 in the assay on DLD-1, with DMS-114, with DMS-273, in the assay on LXFL 529, in the assay on M19-MEL and with SNB-78 was > 100 µM (inactive) throughout. Moreover, the GI50 with XF498 was > 100 µM (inactive).
`Cc1nc(N)nc(N)c1CCCCc1ccc(N)cc1`: the GI50 with DLD-1 was 6.43 µM (inactive); in the assay with LXFL 529 it was 6.46 µM (inactive); with M19-MEL, 8.55 µM (inactive); in the assay on SNB-78, 9.46 µM (inactive); in the assay on XF498, 11.4 µM (inactive).
Turning to `Cc1cccc(N2C(=O)/C(=C/c3ccc(N(CCC#N)CCC#N)cc3C)N=C2c2cc([N+](=O)[O-])ccc2Cl)c1`, the GI50 with DLD-1 was > 100 µM (inactive); in the assay on DMS-114 it was 88.9 µM (inactive); in the assay on DMS-273, > 100 µM (inactive); in the assay on HOP-18, > 100 µM (inactive); in the assay on LXFL 529, > 100 µM (inactive); in the assay with M19-MEL it was > 100 µM (inactive). In addition, the GI50 in the assay on RXF 631 is > 100 µM (inactive).
For `c1ccc2c(c1)nnn2CNc1ccc(N2CCCCC2)cc1`, the GI50 in the assay with DLD-1, with DMS-114, in the assay on DMS-273, with HOP-18, in the assay on LXFL 529 and in the assay on SNB-78 was > 100 µM (inactive) each time. Also, the GI50 in the assay on XF498 is > 100 µM (inactive).
With `O=C(/C=C/c1ccc(OCCSCCCCCCCCCCSCCOc2ccc(/C=C/C(=O)c3ccc(Cl)cc3)cc2)cc1)c1ccc(Cl)cc1`, the GI50 with DLD-1, in the assay with DMS-114, in the assay with DMS-273, with HOP-18, in the assay on LXFL 529 and in the assay on M19-MEL was > 100 µM (inactive) throughout. Further, the GI50 in the assay with RXF 631 was > 66.1 µM (inactive); in the assay with SNB-78 it was 37.2 µM (inactive).
`COC(=O)C1CC(C(=O)OC)c2nc3cc(C)ccc3nc21` (centres undefined): the GI50 with DLD-1 is > 100 µM (inactive); in the assay with DMS-114, > 100 µM (inactive); in the assay on DMS-273, > 100 µM (inactive); in the assay with HOP-18, 51.4 µM (inactive); in the assay on LXFL 529 it was > 100 µM (inactive); with M19-MEL it was > 100 µM (inactive). Further, the GI50 with RXF 631, in the assay with SNB-78 and in the assay with XF498 was > 100 µM (inactive) throughout.
Regarding `CN1CC[C@]2(C)c3cc(O)ccc3CC3CCCC1C32C` (some centres undefined), the GI50 with DLD-1 is > 100 µM (inactive); in the assay on DMS-114, > 100 µM (inactive); in the assay on HOP-18, 26.6 µM (inactive); in the assay with LXFL 529 it was > 100 µM (inactive); in the assay on M19-MEL, > 100 µM (inactive); in the assay with RXF 631, > 100 µM (inactive). For the same molecule, the GI50 in the assay on SNB-78 and in the assay with XF498 was > 100 µM (inactive) throughout.
Take `COC(=O)c1cc2c3c(ccc2[nH]1)N(C(=O)c1cc2c4c(ccc2[nH]1)N(C(=O)c1cc2c5c(ccc2[nH]1)N(C(N)=O)CC5)CC4)CC3`: the GI50 in the assay with DLD-1 was > 21.1 µM (inactive); in the assay with DMS-114, 3.7 µM (inactive); with DMS-273, 4.06 µM (inactive); in the assay with HOP-18, > 100 µM (inactive); with LXFL 529, 2.07 µM (inactive); in the assay with SNB-78 it was > 100 µM (inactive).
Take `COC(=O)C1=Cc2cc(OC)c(OC)cc2[C@H](c2ccc(OC)c(OC)c2)C1C(=O)OC` (some centres undefined): the GI50 in the assay with DMS-114, in the assay with DMS-273, in the assay with LXFL 529, in the assay on M19-MEL, with SNB-78 and with XF498 was > 100 µM (inactive) in each case.
For the molecule `CC(=O)OCC1OC(n2c(=O)[nH]c(=O)c3nn[nH]c32)C(OC(C)=O)C(OC(C)=O)C1OC(C)=O` (centres undefined), the GI50 is > 100 µM (inactive) in the assay on DLD-1; > 100 µM (inactive) in the assay with DMS-114; > 100 µM (inactive) with DMS-273; 76.7 µM (inactive) with HOP-18; > 100 µM (inactive) with LXFL 529; > 100 µM (inactive) with M19-MEL. The GI50 with XF498 was > 100 µM (inactive).
Regarding `CCCOc1ccc(/C=C/c2cc(OC)c(OC)c(OC)c2)cc1`, the GI50 in the assay on DLD-1 was 0.386 µM (active); with DMS-114, 0.347 µM (active); with DMS-273, 0.147 µM (active); with HOP-18, > 100 µM (inactive); with LXFL 529, 0.558 µM (active); in the assay with M19-MEL it was 0.682 µM (active). The GI50 in the assay on RXF 631 was 2.03 µM (inactive); in the assay on SNB-78, 1.29 µM (inactive); in the assay with XF498 it was 0.56 µM (active).
As for `O=C1C2c3[nH]c4ccccc4c3[C@@H]3CCCCC3C2C(=O)N1c1ccccc1` (some centres undefined), the GI50 in the assay with DLD-1 was 26.2 µM (inactive); with DMS-114 it was 22.1 µM (inactive); in the assay on DMS-273, 17.3 µM (inactive); in the assay with LXFL 529, 17.6 µM (inactive); with M19-MEL it was 19.1 µM (inactive); in the assay on RXF 631, 14.8 µM (inactive). Also, the GI50 with SNB-78 is 19.3 µM (inactive).
Take `CC1(C)O/C(=C\c2ccccc2)C(=O)/C(=C/c2ccccc2)O1`: the GI50 in the assay with DLD-1 is 42.3 µM (inactive); with DMS-114, 17.3 µM (inactive); in the assay with DMS-273, 42.6 µM (inactive); in the assay with HOP-18, > 100 µM (inactive); with LXFL 529, 20.4 µM (inactive); in the assay on M19-MEL, 28.6 µM (inactive). For the same molecule, the GI50 is 33.8 µM (inactive) in the assay on RXF 631, 38.5 µM (inactive) in the assay on SNB-78 and 18.5 µM (inactive) in the assay with XF498.
With `COc1cc(C2(C)SCCCS2)cc(OC)c1OC`, the GI50 in the assay on DLD-1, in the assay on DMS-114, in the assay on DMS-273, in the assay with HOP-18, in the assay on LXFL 529 and in the assay on M19-MEL was > 100 µM (inactive) throughout. Further, the GI50 in the assay with RXF 631 was > 100 µM (inactive).
Consider `O=C(c1ccco1)N(C(=S)N1CCN(c2ccccc2)CC1)c1ccccc1`, for which the GI50 with DLD-1, in the assay with DMS-114, in the assay on DMS-273, in the assay with HOP-18, with LXFL 529 and in the assay on M19-MEL was > 100 µM (inactive) each time. Besides, the GI50 with SNB-78 was > 100 µM (inactive).
Consider `COc1cc2c(cc1OC)C(=O)N1CCCC1C(=O)S2` (centres undefined), for which the GI50 was > 100 µM (inactive) with DLD-1; > 100 µM (inactive) in the assay with DMS-114; > 100 µM (inactive) in the assay with DMS-273; 25.4 µM (inactive) in the assay with HOP-18; > 100 µM (inactive) with LXFL 529; > 100 µM (inactive) in the assay with SNB-78. Also, the GI50 in the assay with XF498 is 92.7 µM (inactive).
Consider `Nc1nc(SCc2ccccc2[N+](=O)[O-])c2[nH]cnc2n1`, for which the GI50 in the assay on DLD-1, with DMS-273, in the assay on LXFL 529, in the assay on M19-MEL and with SNB-78 was > 100 µM (inactive) each time.
Consider `Cc1ccc(C(=O)C(C)N)cc1` (centres undefined), for which the GI50 in the assay with DLD-1, with DMS-114, with DMS-273, in the assay on HOP-18, with LXFL 529 and in the assay on SNB-78 was > 100 µM (inactive) in each case. Besides, in the assay with XF498, the GI50 is > 100 µM (inactive).
As for `Oc1ccc(-c2n[nH]c(S)n2)cc1`, the GI50 in the assay with DLD-1, in the assay on DMS-114, in the assay on DMS-273, in the assay with HOP-18, in the assay on LXFL 529 and in the assay with M19-MEL was > 100 µM (inactive) throughout. Also, the GI50 in the assay on SNB-78 and in the assay with XF498 was > 100 µM (inactive) in each case.
Turning to `NCCCC(N/C=C1/N=C(c2ccccc2)OC1=O)C(=O)O` (centres undefined), the GI50 in the assay with DLD-1 is 65.8 µM (inactive); with DMS-114, > 100 µM (inactive); with DMS-273 it was > 100 µM (inactive); in the assay on LXFL 529, 96.8 µM (inactive); in the assay on M19-MEL, > 100 µM (inactive); in the assay with SNB-78, > 100 µM (inactive). Also, the GI50 in the assay on XF498 is > 100 µM (inactive).
Turning to `CNC(=O)NCNC(=O)NC`, the GI50 with DLD-1, with DMS-114, in the assay with DMS-273, in the assay with HOP-18, in the assay on LXFL 529 and in the assay on M19-MEL was > 100 µM (inactive) each time. The GI50 in the assay with RXF 631 and in the assay with SNB-78 was > 100 µM (inactive) each time.

For the origin of these results see ChEMBL document CHEMBL1201862, “PubChem BioAssay data set” (2004).
